Measured values taken from patent US20050107289A1, “Anti-microbial peptides and compositions” (priority 2001, published 2005).
Non-standard residues stand in square brackets, D forms with d. Residues, ends and D or L forms follow the SMILES beside them.

Tests used:
E. coli JM109(DE3) = assay type: cell-based, Escherichia coli; conditions: JM109
Description: (§1) The antimicrobial activity of the peptides was determined using a broth dilution assay essentially as descried in the guidelines of the National Committee for […] (NCCLS) [National Committee for Clinical Laboratory Standards. Methods for dilution antimicrobial susceptibility tests for bacteria that grow aerobically. Fourth edition. Approved Standard (1997). Document M7-A4. […] The microdilution method has the advantages of requiring less amount of peptide for each assay and the possibility of multiple simultaneous inoculations and was used in most studies. Several of the strains of bacteria tested are further described in Table 3.
(§2) Preparation of peptide solutions. Stock peptide solutions were prepared in 5% DMSO in aq. sucrose (9%). Determination of peptide concentrations was done by quantitative HPLC analysis using known concentrations of internal standards and/or by measuring UV absorption of tryptophane-containing peptide solutions in H2O (λ=280 εTrp: 5690). Serial 2-fold dilutions were made in the above DMSO/aq. sucrose (9%) mixture with concentrations ranging approximately 400-2 μg/ml and aliquots were dispensed in test tubes (100 μl) for the macrodilution test or in microtiter plates (20 μl) for the microdilution assays.
(§3) Inoculum preparation. Overnight cultures of different microorganisms grown in suitable media were diluted 4000 times to an approximate inoculum size of 2.5×10^5 cfu/ml.
(§4) Macrodilution method. Macrodilution methods were performed using procedures similar to those described in the National Committee for Clinical Laboratory Standards. Methods for dilution antimicrobial susceptibility tests for bacteria that grow aerobically. Fourth edition. Approved Standard (1997). Document M7-A4. (NCCLS,Villanova, Pa., 1997). Two ml aliquots of the above inoculum were dispensed to test tubes containing different peptide solutions.
(§5) Microdilution method. Microdilution methods were performed using procedures similar to those described in the National Committee for Clinical Laboratory Standards. Methods for dilution antimicrobial susceptibility tests for bacteria that grow aerobically. Fourth edition. Approved Standard (1997). Document M7-A4.

[1] = tested on: S. aureus (MRSA) ATCC 33591; assay type: cell-based, Staphylococcus aureus; conditions: for MRSA MIC / S. aureus (MRSA) MIC: ATCC 33591; for MRSA (in vitro activity): Table 9, media a: anti-microbial media-3 (AM-3)
Method in brief: (§6)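 MIC read from NCCLS-style broth dilution. Peptide concentrations were set by quantitative HPLC or Trp UV absorbance at 280 nm, then serially halved from about 400 to 2 μg/ml in 5% DMSO/9% sucrose. Inoculum: approximately 2.5×10^5 cfu/ml.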

[2] = tested on: Bacillus cereus ATCC 11778; assay type: cell-based
Description: as §1, §2, §3, §4, §5

[3] = tested on: Streptococcus pneumoniae (ATCC 6301); assay type: cell-based
Description: as §1, §2, §3, §4, §5

[4] = tested on: vancomycin-resistant Enterococus faecalis (VRE)(ATCC 51575); assay type: cell-based, Enterococcus faecalis; design: key to VRE (in vitro activity): peptide concentration in μg/ml (broth dilution assay); conditions: for VRE MIC: ATCC 51575; for VRE (in vitro activity): Table 9, media a: AM-3
Method in brief: as §6

murine red blood cells = assay: Red blood cell hemolysis; assay type: cell-based, mouse; conditions: for Hemolysis HD50: red cells of murine
Method in brief: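 Washed murine erythrocytes at 5% in saline with 10% FBS were exposed to serial peptide dilutions for 30 min at 37° C. Supernatant absorbance at 560 nm was read, with saline as 0% and 1% Triton X-100 as 100% hemolysis.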

| Structure (SMILES) | E. coli MIC (E. coli JM109(DE3)) [µg/mL] | MRSA MIC [1] [µg/mL] | B. cerius MIC [2] [µg/mL] | S. pneum. MIC [3] [µg/mL] | VRE MIC [4] [µg/mL] | Hemolysis HD50 (murine red blood cells) [µg/mL] | MRSA (in vitro activity) [1] | VRE (in vitro activity) [4] | RBC Hemolysis (HD50) (murine red blood cells) | S. aureus (MRSA) MIC [1] [µg/mL] |
| --- | --- | --- | --- | --- | --- | --- | --- | --- | --- | --- |
| CC(=O)N[C@H](CC(C)C)C(=O)N[C@@H](Cc1c[nH]c2ccccc12)C(=O)N[C@H](CCCNC(=N)N)C(=O)N[C@@H](CCCNC(=N)N)C(=O)N[C@H](CCCCN)C(=O)N[C@@H](Cc1c[nH]c2ccccc12)C(=O)N[C@H](CC(C)C)C(=O)N[C@@H](Cc1c[nH]c2ccccc12)C(N)=O [SEQ ID NO:138, Ac-LWRRKWLW-NH2] (Ac-[dL]W[dR]R[dK]W[dL]W-NH2) | 7 | 15 | 20 | 20 | 100 | 100 |  |  |  |  |
| CC(C)C[C@H]1NC(=O)[C@H](Cc2c[nH]c3ccccc23)NC(=O)[C@@H](CCCCN)NC(=O)[C@H](CCCNC(=N)N)NC(=O)[C@@H](CCCNC(=N)N)NC(=O)[C@H](Cc2c[nH]c3ccccc23)NC(=O)[C@@H](CC(C)C)NC(=O)[C@H](CO)NC1=O [SEQ ID NO:112, [RRKWLSLW]] (cyclo([dR]R[dK]W[dL]S[dL]W)) | 12 | 12 | 13 | 12 | 50 | 100 | 12 | 50 | 100 |  |
| CC(C)C[C@@H](NC(=O)[C@H](Cc1c[nH]c2ccccc12)NC(=O)[C@@H](CC(C)C)NC(=O)[C@H](Cc1c[nH]c2ccccc12)NC(=O)[C@@H](CCCCN)NC(=O)[C@H](CCCCN)NC(=O)[C@H](N)CCCCN)C(=O)N[C@@H](Cc1c[nH]c2ccccc12)C(N)=O [SEQ ID NO:134, H-KKKWLWLW-NH2] (H-[dK]K[dK]W[dL]W[dL]W-NH2) | 3 | 30 | 19 | 80 | 100 | 100 |  |  |  |  |
| CC(C)C[C@H]1NC(=O)[C@H](Cc2c[nH]c3ccccc23)NC(=O)[C@@H](CCCCN)NC(=O)[C@H](CCCNC(=N)N)NC(=O)[C@@H](CCCNC(=N)N)NC(=O)[C@H](Cc2c[nH]c3ccccc23)NC(=O)[C@@H](CC(C)C)NC(=O)[C@H](CCC(=O)O)NC1=O [SEQ ID NO:109, [RRKWLELW]] (cyclo([dR]R[dK]W[dL]E[dL]W)) | 40 | 80 | 195 | 100 | 100 | 100 | 80 | 100 | 100 |  |
| CC(C)C[C@H]1NC(=O)[C@H](Cc2c[nH]c3ccccc23)NC(=O)[C@@H](Cc2c[nH]cn2)NC(=O)[C@H](CCCCN)NC(=O)[C@@H](CCC(=O)O)NC(=O)[C@H](Cc2c[nH]c3ccccc23)NC(=O)[C@@H](CC(C)C)NC(=O)[C@H](Cc2c[nH]c3ccccc23)NC1=O [SEQ ID NO:16, cyclo-(D-Glu-Lys-D-His-Trp-D-Leu-Trp-D-Leu-Trp)] (cyclo(K[dH]W[dL]W[dL]W[dE])) | 100 | 100 | 85 | 50 | 100 |  | 100 | 100 | >100 | 100 |
| CC(C)C[C@H]1NC(=O)[C@H](Cc2c[nH]c3ccccc23)NC(=O)[C@@H](CCCCN)NC(=O)[C@H](Cc2c[nH]cn2)NC(=O)[C@@H](CCCCN)NC(=O)[C@H](Cc2c[nH]c3ccccc23)NC(=O)[C@@H](CC(C)C)NC(=O)[C@H](Cc2c[nH]c3ccccc23)NC1=O [SEQ ID NO:22, KHKWLWLW] (cyclo([dK]H[dK]W[dL]W[dL]W)) | 80 | 10 | 8 | 8 | 10 |  | 10 | 10 | 30 | 10 |
